Results reported in patent publication US6251903A, “Alkyl, azido, alkoxy, and fluoro-substituted and fused quinoxalinediones and the use thereof as glycine receptor antagonist” (priority 2000, dated 2001).
Entries after “also recorded” stand apart in the source; their conditions may differ.

How the values were obtained:
[1] = biological target: NMDA receptor glycine sites; experiment: electrophysiological assay, cloned rat NMDA receptors expressed in Xenopus oocytes; assay type: cell-based; settings: Table II; from electrophysiology using Xenopus oocytes
From the text: (§1) The binding affinities of quinoxaline-2,3-diones at NMDA receptor glycine sites also were estimated by electrophysiological assays with either cloned rat NMDA receptors expressed in Xenopus oocytes, or non-NMDA receptors expressed in oocytes by whole rat brain poly(A)^+ RNA. […] For NMDA receptors Ki values were approximated by averaging values at three subtype combinations (NR1A/NR2A, NR1A/NR2B, and NR1A/NR2C).

glycine binding site = glycine binding site (Rattus norvegicus, UniProt P35439); experiment: affinity for the glycine binding site / glycine/NMDA receptor (Ki; method not stated)
From the text: as §1

mice [2] = experiment: anticonvulsant activity in maximum electroshock seizure (MES) experiments in mice; assay type: in vivo, male Swiss/Webster mice; settings: route not stated
Method: The seizure stimulus parameters were: 50 mA, 60 Hz, rectangular pulse, width 0.8 msec, duration 200 msec. Tonic hind limb extension observed after application of the electrical stimulus was recorded as occurrence of seizure. The drug was applied i.v. as an aqueous Tris (Tromethamine) solution.

mice [3] = experiment: formalin test for pain in Swiss Webster mice; assay type: in vivo, male Swiss Webster mice; settings: for time spent licking, early phase / time spent licking, late phase (15-50 min): mean ± s.e.m.
Method: The effects of the glycine receptor antagonists of the present invention on chronic pain can be evaluated as follows. Male Swiss/Webster mice weighing 25-35 grams are housed five to a cage with free access to food and water and are maintained on a 12 hour light cycle (light onset at 0800h). The glycine receptor antagonist is dissolved in DMSO at a concentration of 140 and 5-40 mg/mL, respectively. DMSO is used as vehicle control. All drugs=are injected intraperitoneally (1 μl/g). […] Mice are observed in a plexiglass cylinder, 25 cm in diameter and 30 cm in height. The plantar surface of one hindpaw is injected subcutaneously with 20 μl of 5% formalin. The degree of pain is determined by measuring the amount of time the animal spends licking the formalin-injected paw during the following time intervals: 0-5' (early phase); 5'-10', 10'-15' and 15'-50' (late phase). To test whether the glycine/excitatory amino acid antagonists prevent chronic pain in the test animals, vehicle (DMSO) or drugs dissolved in vehicle at doses of 1 mg/kg to 40 mg/kg are injected intraperitoneally 30 minutes prior to the formalin injection. For each dose of drug or vehicle control at least six animals are used.
Briefly, after a 60 minute accommodation period in plexiglass jars, mice were weighed and injected intraperitoneally (i.p.) with NDMQX (1-20 mg/kg; N=6-10 mice/dose). Controls were injected with DMSO (1 mL/kg, i.p.). Thirty min later, mice were injected with formalin (20 μl of 5% solution) just under the skin of the right hind paw, transferred to the plexiglass jars, and immediately observed for licking or biting of the injected paw for 1 hr. The amount of time that each mouse spent licking the injected paw was measured at 0-5 min (early phase) and 15-50 min (late phase).
In the formalin test, following a 1 hr accommodation period, mice were injected i.p. with NMCQX (1.00-10.00 mg/kg, N=7-13 mice/dose) or NDMQX (0.5-20.00 mg/kg, N=8-9 mice/dose). Control mice were injected with Tris (0.5 M) or Bis-Tris (0.2 M), respectively. Mice were then injected with formalin. […] The amount of time that each mouse spent licking and/or biting the injected paw was recorded for 1 hr.

mice [4] = experiment: MES test with i.p. NMCQX or NDMQX (Example 51); assay type: in vivo, Swiss Webster mice; settings: NMCQX 1.25-7.50 mg/kg, NDMQX 5.00-15.00 mg/kg
Method: In the MES test, mice were injected i.p. with NMCQX (1.25-7.50 mg/kg) or NDMQX (5.00-15.00 mg/kg). Control mice were injected with Tris (0.05 M) or Arginine (0.1 M), respectively. Seizures were then induced by applying a rectangular pulse, 50 mA, 60 pulses/sec, 0.8 msec pulse width, and 0.2 sec train length, at the time of the drugs' peak effect.

mice [5] = experiment: morphine tolerance in the formalin test (8 days chronic); assay type: in vivo, male Swiss Webster mice
Method: A modification of a previously described method was used (Hunskaar et al., J. Neurosci. Meth. 14:69-76 (1985)). Briefly, mice were placed in Plexiglas jars for at least 1 hr for accommodation to the experimental condition. Formalin (20 μl of 5% formaldehyde solution in saline) was injected into the dorsal surface of the right hind paw using a microsyringe (Hamilton Co., Reno, Nev.) with a 27-gauge needle. Mice were then transferred to the Plexiglas jars and immediately observed for licking or biting of the injected paw for 1 hr. The amount of time that each mouse spent licking or biting the injected paw was recorded for every 5-min period for a 1 hr observation period.
[…] Mice were immediately, within a minute, injected with either saline or morphine (20 mg/kg, s.c.). On day 9, mice were weighed and after a 1-hr accommodation period-injected with morphine (4 mg/kg, s.c.). Thirty min later, all mice were tested in the formalin test (see above).

mice [6] = experiment: effect of chronic NDMQX on morphine antinociception in the formalin test; assay type: in vivo, male Swiss Webster mice; settings: 40 mg/kg i.p., 8 days
rats = experiment: rat model of permanent focal cerebral ischemia, continuous intravenous infusion; assay type: in vivo, male Sprague-Dawley rats
Method: Male Sprague-Dawley rats (290-320 g) were […] and maintained under anesthesia with ±2% of halothane. […] The common carotid arteries (CCA) were isolated, and a loose silk ligature Was placed around each CCA. A vertical skin incision was made between the left orbit and the auditory canal, posterior part of zygoma removed and small opening (2.0/2.5 mm) drilled dorsorostrally to the foramen ovale under constant saline irrigation. The dura was opened with a microsurgical hook and the brain gently retracted with a fine spatula to expose the bifurcation of the internal carotid artery and the middle cerebral artery. The ipsilateral CCA was ligated and the MCA coagulated from its origin to the olfactory tract Two hours after MCA occlusion, the clip from the contralateral CCA was removed.
NDMQX was dissolved in 0.1 M L-arginine and 5% glucose and infused as a slow 10 mg/kg i.v. bolus (immediately after MCA occlusion) followed by 7 mg/kg/h infusion for 22 hours.
Brains were sliced into 2 mm blocks and stained with tetrazolium red (2,3,5-triphenyl tetrazolium chloride). The areas of brain damage were assessed using an image analyzer (Image-1, Universal Imaging Corporation, PA) to determine the volume of cortical and subcortical infarction by integration of areas and the distance between each level.
For the drug administration, the NMCQX was dissolved in 0.05 Tris and 5% glucose. It was infused as a slow 2 mg/kg i.v. bolus (immediately after MCA occlusion) followed by 1.4 mg/kg/h infusion for 22 hours.

[7] = penetration of the blood/brain barrier, access to the central nervous system; assay type: in vivo; settings: inferred from Ki and MES ED50

## Cc1cc2nc(O)c(O)nc2c([N+](=O)[O-])c1C [NDMQX, 6,7-Dimethyl-5-nitro-1,4-dihydroquinoxaline-2,3-dione]
[1]
  Ki: 43 nM
Glycine binding site
  Ki: 43 nM
Glycine binding site; from Ki
  times less active than 6,7-dichloro-5-nitro-1,4-dihydroquinoxaline-2,3-dione at the glycine/NMDA receptor: about 10 times
Mice [2]
  ED50 as an anticonvulsant in the MES experiment in mice: 4 to 5 mg/kg
Mice [3]; 1.0 mg/kg i.p.
  time spent licking, early phase: 72.57 ± 14.2 sec per 5 min period
  time spent licking, late phase (15-50 min): 37.59 ± 5.37 sec per 5 min period
Mice [3]; 2.5 mg/kg i.p.
  time spent licking, early phase: 78.50 ± 10.0 sec per 5 min period
  time spent licking, late phase (15-50 min): 26.38 ± 5.43 sec per 5 min period
Mice [3]; 5 mg/kg i.p.
  time spent licking, early phase: 32.83 ± 8.28 sec per 5 min period
  time spent licking, late phase (15-50 min): 10.24 ± 2.66 sec per 5 min period
Mice [3]; 10 mg/kg i.p.
  time spent licking, early phase: 29.17 ± 14.9 sec per 5 min period
  time spent licking, late phase (15-50 min): 10.19 ± 2.44 sec per 5 min period
Mice [3]; 15 mg/kg i.p.
  time spent licking, early phase: 6.83 ± 1.85 sec per 5 min period
  time spent licking, late phase (15-50 min): 3.19 ± 1.37 sec per 5 min period
Mice [3]; 20 mg/kg i.p.
  time spent licking, early phase: 4.33 ± 2.85 sec per 5 min period
  time spent licking, late phase (15-50 min): 0.05 ± 0.05 sec per 5 min period
Mice [3]; i.p., early and late phases
  antinociceptive effect in the formalin test: attenuated the mean time spent licking in a dose-dependent manner in both phases; also recorded: significant analgesic effect in both phases; also recorded: dose-dependent antinociceptive effect in both phases
Mice [4]
  protection from electroshock seizures: dose-dependently protected mice from generalized clonic-tonic seizures
Mice [5]; 2 mg/kg
  effect on morphine tolerance: no effect on morphine tolerance
Mice [5]; 20 mg/kg
  effect on morphine tolerance: attenuated
Mice [5]; 40 mg/kg
  effect on morphine tolerance: completely abolished
Mice [5]; 8 days, early and late phases
  morphine tolerance (words, overall): Tolerance did not develop in mice treated with NDMQX followed by morphine; also recorded: blocked morphine tolerance in both phases of the formalin test
Mice [6]
  effect on morphine-induced antinociception: did not alter the antinociceptive effect of morphine; also recorded: not due to potentiation of morphine-induced antinociception
rats; 10 mg/kg i.v. bolus then 7 mg/kg/h for 22 hours, p<0.05
  reduction in cortical infarct volume: 71%
rats; rat focal ischemia
  neuroprotection: significant neuroprotection
[7]
  times better in crossing the blood brain barrier than 6,7-dichloro-5-nitro-1,4-dihydroquinoxaline-2,3-dione: about 10 times
